Test results as given in US20040229246A1, “Diagnostic markers for therapeutic treatment” (Can-Fite Biopharam Ltd., priority 2002, published 2004).
“Also recorded” adds a separate entry of the source. Peptide text beside a SMILES is read from it. * marks the point of attachment. Cbz = O=C(OCc1ccccc1)*

Columns and labels:
PKA and GSK-3β = test: Receptor functionality: Western blot of PKA and GSK-3β in B16-F10 melanoma cells; type: cell-based
Protocol: (§1) To detect the level of expression of the A3AR proteins Western blot analysis was performed. Cells were incubated in the presence and absence of IB-MECA (10 nM), MRS1523 (10 nM), Forskolin (50 nM), 8 Br cAMP (100 μM), Cycloheximide 20 μg/ml or MG 132 (20 nM) for different time periods at 37° C. Cells were then rinsed with ice-cold PBS and transferred to ice-cold lysis buffer (TNN buffer, 50 mM Tris buffer pH=7.5, 150 mM NaCl, NP 40). In the experiment examining the effect of trypsin on A3AR expression, cells were incubated with 0.5 ml of 0.25% trypsin for 5 minutes. The trypsinized cells were washed again with ice-cold PBS, harvested by centrifugation and subjected to lysis in TNN buffer. Cell debris was removed by centrifugation for 10 minutes, at 7500 xg. The supernatant was utilized for Western Blot analysis. Protein concentrations were determined using the Bio-Rad protein assay dye reagent. Equal amounts of the sample (50 μg) were separated by SDS-PAGE, using 12% polyacrylamide gels. The resolved proteins were then electroblotted onto nitrocellulose membranes (Schleicher & Schuell, Keene, NH, USA). Membranes were blocked with 1% bovine serum albumin and incubated with the desired primary antibody (dilution 1:1000) for 24 hours at 4° C. Blots were then washed and incubated with a secondary antibody for 1 hour at room temperature. Bands were recorded using BCIP/NBT color development kit (Promega, Madison, W1, USA). Data presented in the different figures are representative of at least three different experiments.
To test receptor functionality, the protein expression level of PKA and GSK-3β, which are modulated downstream to A3AR activation, was examined. Functional receptor sensitization by IB-MECA was observed after 15 and 60 minutes and was manifested by decreased PKA and increased GSK-3β levels. […] Indeed, the modulatory effect of IB-MECA on PKA and GSK-3β was reversed in the presence of the above agents (FIG. 8a, 8b and 8c).

[1] = system: adjuvant induced arthritis; test: Adjuvant induced arthritis (AIA) in rats, clinical and histological score; type: in vivo; settings: administered 30 minutes prior to IB-MECA
Protocol: AIA in Rats: Female Lewis rats, aged 8-12 weeks, obtained from Harlan Laboratories (Jerusalem, Israel), were injected subcutaneously (s.c.) at the tail base with 100 μl of suspension composed of incomplete Freund's adjuvant (IFA) with 10 mg/ml heat killed Mycobacterium tuberculosis, (Mt) H37Ra, (Difco, Detroit, USA). To assess the clinical disease activity score, the animals were inspected every second day for clinical arthritis. The scoring system ranged from 0-4 of each limb: 0-no arthritis; 1-redness or swelling of one toe/finger joint; 2-redness and swelling of more than one toe/finger joints; 3-the ankle and tarsal-metatarsal joints involvement; 4-entire paw redness or swelling. The arthritic score was calculated by adding the four individual legs' score to a maximum of 16. For histological scoring, Animals were sacrificed, the legs were removed up to the knee level, fixed in 10% formaldehyde, decalcified, dehydrated, paraffin-embedded, cut into 4 μm sections and stained by Hematoxylin-Eosin. The assessment of all pathologic findings were performed blind using semi-quantitative grading scales of 0 to 4 for the following parameters: a) extent of inflammatory cells' infiltration to the joint tissues; b) synovial lining cell hyperplasia; c) pannus formation; and d) joint cartilage layers destruction. […] TNF-α was measured in synovia, DLN and spleen tissues derived from control and CF101 treated rats. […] Protein concentrations were determined using the Bio-Rad protein assay dye reagent. […] Bands were recorded using BCIP/NBT color development kit (Promega, Madison, Wis., USA). Densitometry of protein expression was normalized against β-actin and expressed as % of control. […]

[2] = system: A3AR, A2AR, PI3K, PKB/Akt, IKKα/β, NF-κB, TNF-α, GSK-3β, caspase-3; test: Western blot of A3AR and downstream signaling proteins in DLN and synovial tissue of AIA rats; type: in vivo; settings: antagonist followed by IB-MECA
A3AR [3] = target: T1, A3AR (Mus musculus, UniProt Q61618); test: Western blot analysis of A3AR protein in B16-F10 melanoma cells; type: cell-based; settings: B16-F10 melanoma cells exposed for 180 minutes to IB-MECA in the presence of the inhibitor
T1 construct: endogenous in cells; host or cells: B16-F10 melanoma cells
T1 sequence (Q61618 1-319): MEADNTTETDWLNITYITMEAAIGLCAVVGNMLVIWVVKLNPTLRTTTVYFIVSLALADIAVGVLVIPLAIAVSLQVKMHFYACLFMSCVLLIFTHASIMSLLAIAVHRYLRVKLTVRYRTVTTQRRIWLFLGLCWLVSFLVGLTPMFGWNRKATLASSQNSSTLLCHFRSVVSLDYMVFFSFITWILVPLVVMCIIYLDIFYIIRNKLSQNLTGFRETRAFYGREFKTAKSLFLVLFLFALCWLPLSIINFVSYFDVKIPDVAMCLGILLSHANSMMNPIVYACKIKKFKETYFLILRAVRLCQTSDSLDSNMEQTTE
Protocol: as §1
Receptor internalization by treating melanoma cells with trypsin, which removes the cell surface receptor, was examined.
Time dependent expression of A3AR in the melanoma cells was examined by Western blot analysis.

A3AR [4] = test: Northern blot analysis of A3AR mRNA in B16-F10 melanoma cells; type: cell-based; settings: B16-F10 melanoma cells, antagonist with IB-MECA
Protocol: Total RNA was isolated from B16-F10 melanoma cells treated with IB-MECA, utilizing Tri-reagent (Sigma, Saint Louis). The samples were then subjected twice to phenol:chloroform extraction and washed with chloroform. RNA was precipitated with sodium acetate/ethanol following washing with ethanol, then denatured, separated (25 μg per lane) in 1.1% formaldehyde agarose gels and transferred to Hybond-N membrane. The 390 bp EcoRI fragment from A3AR cDNA clone of mouse (TAA3I.S), kindly supplied by Dr Kathia Ravid, was prepared by random-primed synthesis. Probes were used in RNA blot analysis at a hybridization temperature of 42° C. in the presence of 50% formamide.

Structure (SMILES) | modulatory effect of IB-MECA on PKA and GSK-3β in the presence of the agent (PKA and GSK-3β) | effect on IB-MECA-induced modulation of A3AR protein expression (A3AR [3]) | further results
Nc1ncnc2c1nc(Br)n2[C@@H]1O[C@@H]2COP(=O)(O)O[C@H]2[C@H]1O [8-Br-cAMP] | reversed | – | –
O=C(Cc1ccccc1)Nc1nc2ccc(Cl)cc2c2nc(-c3ccco3)nn12 [MRS 1220] | – | – | effect on the anti-inflammatory response of IB-MECA (clinical score) [1]: nullified; also recorded: nullification; effect on IB-MECA-induced A3AR modulation [2]: blocked this modulation
C[C@@H]1C[C@@H]([C@H](O)CC2CC(=O)NC(=O)C2)C(=O)[C@@H](C)C1 [cycloheximide] | – | inhibited receptor up-regulation | –
CCCOC(=O)c1c(-c2ccccc2)nc(CC)c(C(=O)SCC)c1CCC [MRS1523] | reversed | – | effect on IB-MECA-induced A3AR mRNA expression (A3AR [4]): reversed the increase in mRNA expression
CC(C)C[C@@H](C=O)NC(=O)[C@H](CC(C)C)NC(=O)[C@H](CC(C)C)NC(=O)OCc1ccccc1 [MG132] (Cbz-Leu-Leu-Leu-aldehyde) | – | prevented A3AR down-regulation | –
